Results published in PubChem BioAssay AID1963425 (Molecular Pharmacology Branch, DTP, NCI, 2024).
pIC50: −log10 of the molar value. Each block holds one compound with its values, some of them ahead of it.

Test system: 323965-272-R-J2-PDC complex spheroid growth, % test/control
Assay: Anticancer human tumor 323965-272-R-J2-PDC patient-derived pancreatic carcinoma cell line growth inhibition [Asc]
Conditions: for pIC50: curve of first compound; for viability, T/C: stronger effect = lower value
Method: Multicellular complex tumor spheroid response to apoptosis pathway targeting inhibitors Alrizomadlin, Pelcitoclax, and Dasminapant in combination with a variety of drugs and investigational agents in selected tumor cell lines
The MDM2 inhibitor alrizomadlin, the Bcl-2/Bcl-xL inhibitor pelcitoclax, and the IAPs inhibitor dasminapant were evaluated both individually and in combination with standard of care and investigational anticancer small molecules within a complex spheroid model of solid tumors. . Complex spheroids include a stromal component modeled by human endothelial cells (HUVEC) and fibroblasts modeled by human mesenchymal stem cells (MSCs). The concentration ranges selected for each drug and investigational agent were based upon clinically achievable concentrations if the clinical Cmax of the agent was known.
Compounds. The drugs and investigational agents: alrizomadlin (APG-115; NSC831270), pelcitoclax (APG-1252; NSC835773), dasminapant (APG-1387;NSC834197), TAK-243 (NSC785004), copanlisib (NSC809693), olaparib (NSC753686), talazoparib (NSC767125), cobimetinib (NSC 768068), eltanexor (KPT-8602, NSC 794443), abemaciclib (NSC 768073), sotorasib (NSC818433), adagrasib (NSC 831453), MRTX-1133 (NSC 836407), Iadademestat (ORY1001, NSC 806812), and RMC-4630 (NSC839698), were obtained from the NCI Developmental Therapeutics Program Chemical Repository. The FDA-approved anticancer drug set is available from the Developmental Therapeutics Program at https://dtp.cancer.gov/organization/dscb/obtaining/available plates.htm. […] The stock solutions were prepared in dimethyl sulfoxide (DMSO, Sigma-Aldrich, St. Louis, MO, cat. D2650) at 800-fold the tested concentration and stored at -70 degrees C prior to their use. All drugs and investigational agents were tested over a range starting from a high concentration at or near the clinical Cmax and decreasing in half-log increments. If the clinical Cmax for an agent had not been determined, the highest concentration tested was 10 microM.
The patient-derived cancer (PDC) cell lines include five colon adenocarcinomas: 186277-243-T-J2-PDC, 616215-338-R-J1-PDC, 439559-082-T-J2-PDC, 463943-066-T-J2-PDC, and 519858-162-T-J1-PDC; three pancreatic carcinomas: 323965-272-R-J2-PDC, 521955-158-R6-J3-PDC, and 521955-158-R2-J5-PDC; two uterine sarcomas: 327498-152-R-J2-PDC and 993429-296-R-J1-PDC; two rhabdomyosarcomas: 755483-174-R-J1-PDC and 772245-204-R-J1-PDC; two soft tissue sarcomas: 126254-015-R-J1-PDC and 494315-158-R-J1-PDC; two malignant fibrous histiocytomas: 317291-083-R-J1-PDC and 596521-263-R-J1-PDC; two breast carcinomas: 171881-019-R-J1-PDC and 885512-296-R-J2-PDC; and one ovarian carcinoma: 6556581-035-R-J-PDC were obtained from the NCI PDMR, (https://pdmr.cancer.gov). The established cell lines HSSY-2 synovial sarcoma (RRID:CVCL 8719), SYO-1 synovial sarcoma (RRID:CVCL_7146), MPNST malignant peripheral neural sheath tumor were obtained from the Sloan Kettering Institute. The following established cell lines were purchased from the American Type Culture Collection (ATCC, Manassas, VA), Sor the received from the NCI repository:, PANC-1 pancreatic carcinoma (CRL-1469, RRID:CVCL_0480), OVCAR-5 ovarian carcinoma (RRID:CVCL_1628), OVCAR-8 ovarian carcinoma (RRID:CVCL_1629), , MCF-7 breast carcinoma (CRL-12584, RRID:CVCL_0031), MDA-MB-231 breast carcinoma (CRL-12532, RRID:CVCL_0062), NCI-H1876 small cell lung carcinoma (CRL-5902, RRID:CVCL_1503), NCI-H510A small cell lung carcinoma (HTB-184, RRID:CVCL_1565), NCI-H1417 (CRL-5869, RRID:CVCL_1469), and NCI-H196 small cell lung carcinoma (CRL-5823, RRID:CVCL_1509). Dr. Peter Houghton (Greehey Children's Cancer Research Institute, University of Texas Health Science Center, San Antonio, TX) provided Rh-18 rhabdomyosarcoma (RRID:CVCL_1659). Pooled donor human umbilical vein endothelial cells (HUVEC, Lonza, cat. CC-2519) and human mesenchymal stem cells (hMSC, Lonza, cat. PT-2501) were purchased from Lonza (Walkersville, MD).
Cell Culture. […]
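Note: compound exposure lasted 7 days starting three days after spheroid seeding.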
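Throughout, for viability, T/C: 100% = DMSO vehicle control wells with viability set relative to vehicle.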

pIC50 (second compound 0.00949 µM): < 5.00
pIC50 (second compound 0.03 µM): < 5.00
pIC50 (second compound 0.0949 µM): < 5.00
pIC50 (second compound 0.3 µM): < 5.00
pIC50 (second compound 0.949 µM): < 5.00
pIC50 (second compound 3 µM): < 5.00
Compound: C#Cc1c(F)ccc2cc(O)cc(-c3ncc4c(N5CC6CCC(C5)N6)nc(OCC56CCCN5CC(F)C6)nc4c3F)c12 (centres undefined) + CCN1C(C(=O)NC23CCC(C(=O)O)(CC2)CC3)C(c2cccc(Cl)c2F)C2(C(=O)Nc3cc(Cl)ccc32)C12CCCCC2
viability, T/C (second compound 0.00949 µM, first compound 0.0316 µM): 100%
viability, T/C (second compound 0.00949 µM, first compound 0.1 µM): 100%
viability, T/C (second compound 0.00949 µM, first compound 0.316 µM): 98.2%
viability, T/C (second compound 0.00949 µM, first compound 1 µM): 92.6%
viability, T/C (second compound 0.00949 µM, first compound 3.16 µM): 81.2%
viability, T/C (second compound 0.00949 µM, first compound 10 µM): 59.4%
viability, T/C (second compound 0.03 µM, first compound 0.0316 µM): 107%
viability, T/C (second compound 0.03 µM, first compound 0.1 µM): 102%
viability, T/C (second compound 0.03 µM, first compound 0.316 µM): 102%
viability, T/C (second compound 0.03 µM, first compound 1 µM): 106%
viability, T/C (second compound 0.03 µM, first compound 3.16 µM): 83.8%
viability, T/C (second compound 0.03 µM, first compound 10 µM): 63.1%
viability, T/C (second compound 0.0949 µM, first compound 0.0316 µM): 104%
viability, T/C (second compound 0.0949 µM, first compound 0.1 µM): 108%
viability, T/C (second compound 0.0949 µM, first compound 0.316 µM): 94.1%
viability, T/C (second compound 0.0949 µM, first compound 1 µM): 88.9%
viability, T/C (second compound 0.0949 µM, first compound 3.16 µM): 70.8%
viability, T/C (second compound 0.0949 µM, first compound 10 µM): 64.2%
viability, T/C (second compound 0.3 µM, first compound 0.0316 µM): 105%
viability, T/C (second compound 0.3 µM, first compound 0.1 µM): 110%
viability, T/C (second compound 0.3 µM, first compound 0.316 µM): 112%
viability, T/C (second compound 0.3 µM, first compound 1 µM): 91.9%
viability, T/C (second compound 0.3 µM, first compound 3.16 µM): 78.6%
viability, T/C (second compound 0.3 µM, first compound 10 µM): 59.8%
viability, T/C (second compound 0.949 µM, first compound 0.0316 µM): 101%
viability, T/C (second compound 0.949 µM, first compound 0.1 µM): 104%
viability, T/C (second compound 0.949 µM, first compound 0.316 µM): 102%
viability, T/C (second compound 0.949 µM, first compound 1 µM): 89.7%
viability, T/C (second compound 0.949 µM, first compound 3.16 µM): 79.3%
viability, T/C (second compound 0.949 µM, first compound 10 µM): 64.8%
viability, T/C (second compound 3 µM, first compound 0.0316 µM): 102%
viability, T/C (second compound 3 µM, first compound 0.1 µM): 102%
viability, T/C (second compound 3 µM, first compound 0.316 µM): 97.8%
viability, T/C (second compound 3 µM, first compound 1 µM): 84.7%
viability, T/C (second compound 3 µM, first compound 3.16 µM): 63.1%
viability, T/C (second compound 3 µM, first compound 10 µM): 67.9%

pIC50 (second compound 0.0316 µM): < 6.00
pIC50 (second compound 0.1 µM): < 6.00
pIC50 (second compound 0.316 µM): < 6.00
pIC50 (second compound 1 µM): < 6.00
pIC50 (second compound 3.16 µM): < 6.00
pIC50 (second compound 10 µM): < 6.00
Compound: CCN1CCN(Cc2ccc(Nc3ncc(F)c(-c4cc(F)c5nc(C)n(C(C)C)c5c4)n3)nc2)CC1 + Cc1c(S(C)(=O)=O)c(-c2cc(F)cc(N3CCN(c4ccc(NS(=O)(=O)c5ccc(NC(CCN6CCC(C(=O)OCCCP(=O)(O)O)CC6)CSc6ccccc6)c(S(=O)(=O)C(F)(F)F)c5)cc4)CC3)c2)c(-c2ccc(Cl)cc2)n1C(C)C
viability, T/C (second compound 0.0316 µM, first compound 0.00316 µM): 110%
viability, T/C (second compound 0.0316 µM, first compound 0.01 µM): 98.8%
viability, T/C (second compound 0.0316 µM, first compound 0.0316 µM): 106%
viability, T/C (second compound 0.0316 µM, first compound 0.1 µM): 90.4%
viability, T/C (second compound 0.0316 µM, first compound 0.316 µM): 70.5%
viability, T/C (second compound 0.0316 µM, first compound 1 µM): 67.7%
viability, T/C (second compound 0.1 µM, first compound 0.00316 µM): 102%
viability, T/C (second compound 0.1 µM, first compound 0.01 µM): 109%
viability, T/C (second compound 0.1 µM, first compound 0.0316 µM): 95.1%
viability, T/C (second compound 0.1 µM, first compound 0.1 µM): 82.5%
viability, T/C (second compound 0.1 µM, first compound 0.316 µM): 70.7%
viability, T/C (second compound 0.1 µM, first compound 1 µM): 73.6%
viability, T/C (second compound 0.316 µM, first compound 0.00316 µM): 103%
viability, T/C (second compound 0.316 µM, first compound 0.01 µM): 102%
viability, T/C (second compound 0.316 µM, first compound 0.0316 µM): 100%
viability, T/C (second compound 0.316 µM, first compound 0.1 µM): 81%
viability, T/C (second compound 0.316 µM, first compound 0.316 µM): 72.5%
viability, T/C (second compound 0.316 µM, first compound 1 µM): 78.1%
viability, T/C (second compound 1 µM, first compound 0.00316 µM): 102%
viability, T/C (second compound 1 µM, first compound 0.01 µM): 93.1%
viability, T/C (second compound 1 µM, first compound 0.0316 µM): 84.2%
viability, T/C (second compound 1 µM, first compound 0.1 µM): 76.6%
viability, T/C (second compound 1 µM, first compound 0.316 µM): 72.8%
viability, T/C (second compound 1 µM, first compound 1 µM): 70.3%
viability, T/C (second compound 3.16 µM, first compound 0.00316 µM): 83.9%
viability, T/C (second compound 3.16 µM, first compound 0.01 µM): 86.2%
viability, T/C (second compound 3.16 µM, first compound 0.0316 µM): 77.8%
viability, T/C (second compound 3.16 µM, first compound 0.1 µM): 65.8%
viability, T/C (second compound 3.16 µM, first compound 0.316 µM): 67.5%
viability, T/C (second compound 3.16 µM, first compound 1 µM): 61.2%
viability, T/C (second compound 10 µM, first compound 0.00316 µM): 76.4%
viability, T/C (second compound 10 µM, first compound 0.01 µM): 74.4%
viability, T/C (second compound 10 µM, first compound 0.0316 µM): 64.1%
viability, T/C (second compound 10 µM, first compound 0.1 µM): 66.5%
viability, T/C (second compound 10 µM, first compound 0.316 µM): 71.3%
viability, T/C (second compound 10 µM, first compound 1 µM): 70.3%
